From publication PMC12037730 (Nature Communications, 2025)

Legend:
PRPS1 [1] = molecular target: T1, PRPS1 (Homo sapiens, UniProt P60891); assay: steady-state kinetics, coupled assay at […] nm; format: biochemical
T1 construct: full length
T1 sequence (P60891 2-318): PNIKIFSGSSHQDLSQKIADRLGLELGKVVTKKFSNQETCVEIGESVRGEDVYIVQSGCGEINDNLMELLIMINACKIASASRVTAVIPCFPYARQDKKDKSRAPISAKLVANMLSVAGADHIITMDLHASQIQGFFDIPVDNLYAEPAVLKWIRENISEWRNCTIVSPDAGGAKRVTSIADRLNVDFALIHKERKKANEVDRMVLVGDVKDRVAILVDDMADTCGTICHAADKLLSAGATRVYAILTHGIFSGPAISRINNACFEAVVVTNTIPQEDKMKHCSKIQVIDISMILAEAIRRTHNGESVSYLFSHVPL

PRPS2(-3AA/Q156K) = molecular target: T2, PRPS2(-3AA/Q156K) (Homo sapiens, UniProt P11908, Q153K); assay: HPLC feedback inhibition assay (AMP production); format: biochemical
T2 construct: full length chimeric variant, 3AA (V103, G104, E105) deleted
T2 sequence (P11908 2-318 Q153K): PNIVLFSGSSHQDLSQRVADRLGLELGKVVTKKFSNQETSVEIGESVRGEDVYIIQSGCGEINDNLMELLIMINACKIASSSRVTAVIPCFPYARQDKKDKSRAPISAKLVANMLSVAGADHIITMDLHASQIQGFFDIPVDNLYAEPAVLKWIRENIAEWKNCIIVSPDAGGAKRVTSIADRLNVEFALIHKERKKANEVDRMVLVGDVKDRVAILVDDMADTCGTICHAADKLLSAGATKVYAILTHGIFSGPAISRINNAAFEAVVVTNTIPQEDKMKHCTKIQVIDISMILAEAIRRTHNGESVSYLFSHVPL

PRPS1 [2] = molecular target: T1, PRPS1; assay: ITC; co-crystal structure with R5P, ApCpp, Cd2+; enzyme inhibition (IC50 […]); format: binding
[3] = molecular target: the molecule itself; assay: crystal structure; co-crystallisation of 500 μM purified PRPS with ApCpp or GDP (1:5), R5P, crystals soaked in 1 mM CdCl2; 277 K

With `Nc1ncnc2c1ncn2[C@@H]1O[C@H](COP(=O)(O)OP(=O)(O)OP(=O)(O)O)[C@@H](O)[C@H]1O` [ATP] the “steady-state kinetics, coupled assay at 340 nm” value (PRPS1 [1]) was “The catalytic efficiencies of PRPS2 and PRPS1 on either ATP or R5P were characterized”.

For `Nc1nc2c(ncn2[C@@H]2O[C@H](CO[P@](=O)(O)OP(=O)(O)O)[C@@H](O)[C@H]2O)c(=O)[nH]1` [GDP], the “HPLC feedback inhibition assay (AMP production)” value (PRPS2(-3AA/Q156K)) was “chimeric variants of PRPS1( + 3AA/K153Q) and PRPS2(-3AA/Q156K), which exhibited switched GDP feedback inhibition responses” and the Kd (PRPS1 [2]) was 10 µM.

B1: recombinant PRPS2 (enzyme, human, UniProt P11908-2 1-321, looked up)
chain: MPNIVLFSGSSHQDLSQRVADRLGLELGKVVTKKFSNQETSVEIGESVRGEDVYIIQSGCGEINDNLMELLIMINACKIASSSRVTAVIPCFPYARQDKKDKVGESRAPISAKLVANMLSVAGADHIITMDLHASQIQGFFDIPVDNLYAEPAVLQWIRENIAEWKNCIIVSPDAGGAKRVTSIADRLNVEFALIHKERKKANEVDRMVLVGDVKDRVAILVDDMADTCGTICHAADKLLSAGATKVYAILTHGIFSGPAISRINNAAFEAVVVTNTIPQEDKMKHCTKIQVIDISMILAEAIRRTHNGESVSYLFSHVPL
notes: PRPS2, human, full-length gene synthesised and subcloned into pSumo; the form with V103, G104, E105 (3AA) in Loop2 and Q156, i.e. the 321-residue isoform; Crystallised with R5P, ApCpp and Cd2+; source: E. coli BL21(DE3), purified (Ni-NTA, ion exchange, Superdex-200); not shown: His-Sumo, N-terminal, cleaved
B1: binds [3].

B2: PRPS1( + 3AA), PRPS1 chimeric variant (enzyme, human, UniProt P60891 1-318, looked up)
chain: MPNIKIFSGSSHQDLSQKIADRLGLELGKVVTKKFSNQETCVEIGESVRGEDVYIVQSGCGEINDNLMELLIMINACKIASASRVTAVIPCFPYARQDKKDKVGESRAPISAKLVANMLSVAGADHIITMDLHASQIQGFFDIPVDNLYAEPAVLKWIRENISEWRNCTIVSPDAGGAKRVTSIADRLNVDFALIHKERKKANEVDRMVLVGDVKDRVAILVDDMADTCGTICHAADKLLSAGATRVYAILTHGIFSGPAISRINNACFEAVVVTNTIPQEDKMKHCSKIQVIDISMILAEAIRRTHNGESVSYLFSHVPL
notes: PRPS1, human, full length, with the three residues V, G, E of PRPS2 (V103, G104, E105) inserted into the corresponding position of Loop2; the C-terminal residue is then L321; Crystallised with R5P, ApCpp and Cd2+; also called PRPS1 chimera; source: E. coli BL21(DE3), purified (Ni-NTA, ion exchange, Superdex-200); not shown: His-Sumo, N-terminal, cleaved
B2: binds [3].
